From the OligoGym collection
Where “and” joins values, the source holds several entries; their conditions need not be identical. Equal entries are not always repeated. After the bases stand the sugars from the 5' end (letter, count) and the backbone: PS all phosphorothioate, else s phosphorothioate and o phosphodiester by linkage. Methylation of C is not given here. e = 2'-O-(2-methoxyethyl) (MOE); k = constrained ethyl (cEt); d = 2'-deoxy (DNA)

Biological target: IRF4
Conditions: ASO

Sequence	target mRNA inhibition (SK-MEL-28, 4 µM)	target mRNA inhibition (MM.1R, 1 µM)
AGCTTAGTCACCACGG (sugars k3 d10 k3, PS)	67%	
AGCTTGATAAAGGCTG (sugars e1 k2 d9 k2 e2, PS)		1%
AGCTTGATAAAGGCTG (sugars k2 d9 e3 k2, PS)		3%
AGCTTGATAAAGGCTG (sugars kkkdddddddddkeke, PS)		-8%
AGCTTGCAGGTCTGGT (sugars k3 d10 k3, PS)	53%	
AGGAAACCGCTGGCAG (sugars k3 d10 k3, PS)	56%	
AGGAACAATCCTGTAC (sugars k3 d10 k3, PS)	16%	
AGGAATGAGGAAGCCG (sugars k3 d10 k3, PS)	56%	
AGGAATGGCGGATAGA (sugars k3 d10 k3, PS)	38%	
AGGAGGGTTGGCCTGC (sugars k3 d10 k3, PS)	4%	
AGGATAATATACCCCA (sugars k3 d10 k3, PS)	74%	
AGGCACATCAATGTTT (sugars kkdddddddddekeke, PS)		42% and 35%
AGGCACATCAATGTTT (sugars kkdddddddddkekek, PS)		16% and 19%
AGGCACATGAGAAATC (sugars k3 d10 k3, PS)	23%	
AGGCGCGGACGCACGG (sugars k3 d10 k3, PS)	31%	
AGGCTCCTACCCGCCT (sugars k3 d10 k3, PS)	6%	
AGGGAGACAGCTCTAG (sugars k3 d10 k3, PS)	25%	
AGGTAAATCTTCACTG (sugars k3 d10 k3, PS)	54%	
AGGTAAGATCTCCATG (sugars k3 d10 k3, PS)		32%
AGGTAGTAGACCACAG (sugars k3 d10 k3, PS)	59%	
AGGTTGCCGAGATATA (sugars k3 d10 k3, PS)		54% and 67%
AGTAAACTTGGCTGTG (sugars k3 d10 k3, PS)	38%	
AGTAAGAGGGCAGTCA (sugars k3 d10 k3, PS)	50%	

Sequence	target mRNA inhibition (SK-MEL-28, 4 µM)	target mRNA inhibition (MM.1R, 1 µM)
AGTATGAGAAACGGCC (sugars k3 d10 k3, PS)	62%	
AGTATGAGAAACGGCC (sugars kddddddddddkekek, PS)		10%
AGTATGAGAAACGGCC (sugars kkdddddddddekeke, PS)		11%
AGTCACGCAATGGCAA (sugars k3 d10 k3, PS)	50%	
AGTCAGTGTCAATACT (sugars k3 d10 k3, PS)	47%	
AGTCTTTTCGCATAGA (sugars k3 d10 k3, PS)	45%	
AGTGACTTGCATCCAT (sugars k2 d9 e3 k2, PS)		52%
AGTGACTTGCATCCAT (sugars kdddddddddkekeke, PS)		8%
AGTGATGAGATATTCC (sugars k3 d10 k3, PS)	59%	
AGTGATGTCAGGTTTT (sugars k2 d9 e3 k2, PS)		25%
AGTGATGTCAGGTTTT (sugars k3 d10 k3, PS)	72%	
AGTGATGTCAGGTTTT (sugars kdddddddddkekeke, PS)		40%
AGTGATGTCAGGTTTT (sugars kkddddddddddkeke, PS)		32%
AGTGATGTCAGGTTTT (sugars kkkddddddddkekek, PS)		37%
AGTGCAGGAGAGGCTG (sugars k3 d10 k3, PS)	36%	
AGTGCCCAAGCCTTGA (sugars k3 d10 k3, PS)	48%	
AGTGGAGGTCTTTGGG (sugars k3 d10 k3, PS)	55%	
AGTGTAACTGAGGACT (sugars k3 d10 k3, PS)	-7%	
AGTGTCTAAAGTCCCA (sugars kdddddddddkekeke, PS)		-12% and 12%
AGTGTCTAAAGTCCCA (sugars kkdddddddddekeke, PS)		18% and 19%
AGTGTCTAAAGTCCCA (sugars kkdddddddddkekek, PS)		26% and 9%
AGTTCATGTAAAGTCT (sugars kkdddddddddekeke, PS)		51% and 49%
